{
  "source": "patent US6352970B1",
  "about": "“Treatment of skeletal disorders” (Pfizer Inc., priority 1998, dated 2002)",
  "test_system": "ob/ob mouse",
  "assay": "Leptin administration for four weeks in ob/ob mouse, bone measured by peripheral quantitative computerized tomography",
  "format": "in vivo",
  "description": "Administration of leptin for four weeks increased femur length by 6% and increased cortical bone volumetric content by 18%, as determined by peripheral quantitative computerized tomography.",
  "key": {"[1]": {"conditions": "peripheral quantitative computerized tomography"}},
  "data": [
    {"substance": "leptin: a product of the obese gene, a 16 kDa protein produced by mature adipocytes and secreted in plasma", "values": [
      {"measurement": "increase in femur length", "value": 6, "unit": "%"},
      {"measurement": "bone volumetric density", "setting": "[1]", "value": "unchanged"},
      {"measurement": "increase in cortical bone volumetric content", "setting": "[1]", "value": 18, "unit": "%"}
    ]}
  ]
}
